Laboratory results from patent publication US6436973B1, “LTA4 hydrolase inhibitors” (Bioprojet, priority 1998, dated 2002).
Where a name gives a salt, the structure may show the parent alone. Each block holds one compound with its values, some of them ahead of it.

Key:
[1] = test system: biosynthesis of LTB4; assay: Inhibition of the biosynthesis of LTB4 ex vivo (mouse blood after oral dosing); assay type: in vivo; settings: mice, blood collected thirty minutes later
Procedure: 3) Inhibition of the biosynthesis of LTB4 ex vivo
The compounds inhibiting LTA4 hydrolase according to the invention are suspended in 1.25% methyl cellulose and administered to mice by the oral route at the dose of 10 mg/kg. Thirty minutes later, the mice are sacrificed and the blood collected over lithium heparinate. The blood is then, as above, incubated for 10 minutes at 37° C. in the presence of LTA4 and then the LTB4 formed is assayed by enzyme-linked immunoassay.

[2] = molecular target: T1, aminopeptidase M (EC 3.4.11.2) (Sus scrofa, UniProt P15145); assay: Inhibition of membrane aminopeptidase M (same fluorimetric test); assay type: biochemical; settings: 0.1 μg aminopeptidase M (Pierce)
T1 construct: purchased Pierce, USA
T1 sequence (P15145 1-963): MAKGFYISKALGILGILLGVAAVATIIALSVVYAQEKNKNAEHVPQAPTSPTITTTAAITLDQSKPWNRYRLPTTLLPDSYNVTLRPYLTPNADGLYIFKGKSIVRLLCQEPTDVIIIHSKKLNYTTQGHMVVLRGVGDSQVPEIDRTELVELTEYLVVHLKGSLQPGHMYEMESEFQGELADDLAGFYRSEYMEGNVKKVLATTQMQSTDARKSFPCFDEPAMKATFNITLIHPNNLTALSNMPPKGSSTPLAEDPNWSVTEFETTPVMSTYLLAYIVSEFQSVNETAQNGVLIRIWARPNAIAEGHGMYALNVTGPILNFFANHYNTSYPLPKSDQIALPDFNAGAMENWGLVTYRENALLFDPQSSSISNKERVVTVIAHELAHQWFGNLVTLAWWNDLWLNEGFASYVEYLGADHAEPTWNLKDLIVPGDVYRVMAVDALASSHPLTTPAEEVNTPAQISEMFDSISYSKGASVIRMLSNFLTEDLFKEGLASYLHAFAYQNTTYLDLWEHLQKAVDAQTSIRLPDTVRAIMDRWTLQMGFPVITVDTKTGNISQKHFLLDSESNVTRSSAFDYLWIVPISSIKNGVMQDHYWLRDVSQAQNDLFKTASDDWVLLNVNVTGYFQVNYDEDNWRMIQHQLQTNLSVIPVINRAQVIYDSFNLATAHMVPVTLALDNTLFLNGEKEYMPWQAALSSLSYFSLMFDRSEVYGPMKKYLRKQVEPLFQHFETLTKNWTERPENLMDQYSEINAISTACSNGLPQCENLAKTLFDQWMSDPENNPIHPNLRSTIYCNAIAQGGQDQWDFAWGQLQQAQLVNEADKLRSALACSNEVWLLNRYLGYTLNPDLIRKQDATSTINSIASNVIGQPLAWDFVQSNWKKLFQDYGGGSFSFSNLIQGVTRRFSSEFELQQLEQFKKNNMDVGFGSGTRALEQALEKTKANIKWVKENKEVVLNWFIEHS
Procedure: (§1) The inhibition of the aminopeptidase activity of the enzyme is measured by means of a fluorimetric method in 96-well microplates. The recombinant enzyme (0.5 μg in 50 μl of 50 mM Tris-HCl pH 7.4) is preincubated for 10 minutes at 37° C. in the presence of inhibitor and of dithiothreitol (DTT, 10^−5 M). The substrate alanyl-amido-methylcoumarin (Ala-AMC, 25 μM−Tris HCl 50 mM, pH 7.4) is added and the incubation is continued for 15 minutes at 37° C. The release of AMC is measured by fluorimetry.
To evaluate the specificity of the compounds according to the invention, some of them were also tested for their capacity to inhibit the activity of membrane aminopeptidase M (EC 3.4.11.2). The same test is carried out with 0.1 μg of aminopeptidase M (Pierce, USA).

[3] = molecular target: T2, LTA4 hydrolase activity in human whole blood (Homo sapiens, UniProt P09960); assay: Inhibition of the biosynthesis of LTB4 in vitro in human whole blood; assay type: cell-based; settings: LTA4 substrate, LTB4 by enzyme-linked immunoassay
T2 construct: from tissue; host or cells: human whole blood collected over sodium heparinate
T2 sequence (P09960 1-611): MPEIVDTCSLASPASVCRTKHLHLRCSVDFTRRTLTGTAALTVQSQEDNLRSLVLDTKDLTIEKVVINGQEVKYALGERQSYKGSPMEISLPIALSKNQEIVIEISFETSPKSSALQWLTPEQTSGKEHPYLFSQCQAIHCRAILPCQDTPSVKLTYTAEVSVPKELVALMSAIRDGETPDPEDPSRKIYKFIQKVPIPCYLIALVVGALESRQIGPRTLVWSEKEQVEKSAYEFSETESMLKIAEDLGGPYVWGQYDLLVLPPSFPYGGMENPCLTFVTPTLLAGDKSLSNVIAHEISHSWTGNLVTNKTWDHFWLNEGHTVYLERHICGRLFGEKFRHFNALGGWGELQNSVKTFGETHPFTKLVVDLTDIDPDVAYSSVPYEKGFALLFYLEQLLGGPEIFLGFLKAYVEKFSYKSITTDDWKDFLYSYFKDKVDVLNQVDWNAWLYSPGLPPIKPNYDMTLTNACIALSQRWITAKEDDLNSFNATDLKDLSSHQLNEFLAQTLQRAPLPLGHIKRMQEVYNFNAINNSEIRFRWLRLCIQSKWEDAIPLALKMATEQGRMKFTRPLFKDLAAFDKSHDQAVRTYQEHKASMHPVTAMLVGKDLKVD
Procedure: 2) Inhibition of the biosynthesis of LTB4 in vitro
The biosynthesis of LTB4 is measured in human whole blood in the presence of inhibitors of LTA4 hydrolase according to the invention. A 50 μl blood sample collected over sodium heparinate is preincubated for 10 minutes at 37° C. in the presence of inhibitor (50 mM Tris-HCl, 0.15 M NaCl, 10^−5 M DTT, pH 7.4).
The LTA4 substrate was freshly prepared by alkaline hydrolysis of LTA4 methyl ester (Cayman Chemical Co., USA). After incubating for 10 minutes in the presence of LTA4 (1 μm in 50 mM Tris-HCl, 0.15 M NaCl, 0.5% BSA, pH 7.4), the reaction is stopped by diluting 1/20 in 0.1 M potassium phosphate buffer containing 1.5 mM […], 0.4 M NaCl, 1 mM EDTA, 0.1% BSA, pH 7.4−4° C.
The LTB4 is assayed by enzyme-linked immunoassay (Cayman Chemical Co, USA).

[4] = molecular target: T3, human recombinant LTA4 hydrolase (Homo sapiens, UniProt P09960); assay: Inhibition of the aminopeptidase activity of recombinant LTA4 hydrolase (fluorimetric, Ala-AMC); assay type: biochemical; settings: human recombinant enzyme, Ala-AMC 25 μM, DTT 10^−5 M, pH 7.4, 37° C.
T3 construct: made in house; host or cells: E. coli JM109
T3 sequence (P09960 1-611): T2 sequence (P09960 1-611)
Procedure: 1) Inhibition of the aminopeptidase activity of recombinant LTA4 hydrolase
The compounds were tested using human recombinant LTA4 hydrolase (Minami et al., FEBS Letters, 1988, 229: 279). The LTA4 hydrolase expressed by E. coli JM109 is purified mainly according to Minami et al., (J. Biol. Chem., 1987, 262: 13873).
as §1

[5] = test system: biosynthesis of LTB4 in the air pouch; assay: Inflammation induced by carrageenan in the air pouch model in mice (LTB4 in exudate); assay type: in vivo
Procedure: b) Inflammation induced by carrageenan in the air pouch model in mice
The air pouches are formed in mice according to Dawson et al. (Int. J. Tiss. React., 1991, XIII: 171). On day D, 5 ml of air are injected by the subcutaneous route into the back of the mice. On D+3, the pouch is maintained by reinjecting 3 ml of air. On D+6, either a cyclooxygenase inhibitor (indomethacin 5 mg/kg), or an LTA4 hydrolase inhibitor according to the invention (25 mg/kg), or the two in combination are administered by the oral route. After 1 h, 1 ml of 1% carrageenan is injected into the air pouch. The animals are sacrificed 4 h after the injection of carrageenan. The air pouche is washed with 1 ml of 50 mM potassium phosphate buffer containing 0.15 M NaCl, pH 7.4. The exudate is recovered and centrifuged at 10,000 g for 5 minutes. LTB4 is assayed in the supernatant by enzyme-linked immunoassay.

[6] = test system: oedema of the leg induced by Zymosan; assay: Oedema of the leg induced by Zymosan in mice; assay type: in vivo; settings: oral route, 30 mg/kg, one hour before zymosan, sacrificed after 4 hours
Procedure: a) Oedema of the leg induced by Zymosan in mice Zymosan is a polysaccharide of the yeast cell membrane. Injected into the leg of animals, it causes a local inflammatory reaction in the form of an oedema. One hour after administration of the inhibitor tested by the oral route to mice, at the dose of 30 mg/kg, 25 μl of zymosan (0.05% in 0.15 M NaCl) are injected into the left hind leg and 25 μl of physiological saline into the right leg as control. The animal is sacrificed after 4 hours, the legs cut at the ankle and weighed in order to evaluate the oedema developed.

[7] = test system: collagen-induced arthritis; assay: Collagen-induced arthritis in the rat (arthritis score); assay type: in vivo, rat "Dark Aganti"; settings: score at 23rd day
Procedure: c) Antiarthritic effect Collagen-induced arthritis was induced in the rat “Dark […]” according to the protocol by Kamada et al. (Jpn J. Pharmacol., 1997, 74: 313). The LTA4 hydrolase inhibitors are administered either “preventively” (starting from one day after the collagen), or curatively (during the first pathological manifestations, that is starting from 15 days after the collagen). […] The effect is-compared with that of indomethacin (1.5 mg/kg, p.o.).

Compound: N[C@H](CS)COCc1ccccc1 [Example 24, (S)-2-amino-3-benzyloxy-1-propanethiol hydrochloride]
inhibition at 10 mg/kg ([1]; Mus musculus): 28%

Ki [2]: 200 nM
Ki [3]: 200 nM
Ki [4]: 33 nM
Compound: NC(CS)CCCCc1ccccc1 (racemic) [Example 173, (R,S)-2-amino-6-phenyl-1-hexanethiol hydrochloride]

Ki [3]: 190 nM
Ki [4]: 15 nM
Compound: NC(CS)CCOc1ccccc1 (racemic) [Example 172, (R,S)-2-amino-4-phenoxy-1-butanethiol hydrochloride]

Compound: Cl.N[C@@H](CS)CCCCOc1ccccc1 (racemic) [Example 156, (R,S) -2-amino-6-phenoxy-1-hexanethiol hydrochloride]
% LTB4 relative to the noninflamed control ([5]; carrageenan + LTA4 hydrolase inhibitor 25 mg/kg oral, 4 h after carrageenan): −24%
% LTB4 relative to the noninflamed control ([5]; carrageenan + indomethacin 5 mg/kg + inhibitor 25 mg/kg in combination, oral): −28%
Inhibition (%) of oedema of the leg induced by Zymosan [6]: 35%

Compound: Cl.Cl.NC(CCCCOc1ccccc1)CSSCC(N)CCCCOc1ccccc1 [Example 229, 1,1-dithiobis(2-(R,S)-amino-6-phenoxyhexane) dihydrochloride]
Arthritis score ([7]; curative (starting 15 days after collagen), 10 mg/kg i.p. twice/day): 0.38 ± 0.19
Arthritis score ([7]; preventive (starting one day after collagen), 10 mg/kg i.p. twice/day): 0

Compound: COc1ccc2c(c1)c(CC(=O)O)c(C)n2C(=O)c1ccc(Cl)cc1 [indomethacin, reference compound]
% LTB4 relative to the noninflamed control ([5]; carrageenan + indomethacin 5 mg/kg oral, 4 h after carrageenan): +516%
Arthritis score ([7]; curative, 1.5 mg/kg p.o.): 1.35 ± 0.61

Compound: Cl.N[C@@H](CS)CCCOc1ccccc1 (racemic) [Example 177, (R,S)-2-amino-5-phenoxy-1-pentanethiol hydrochloride]
Inhibition (%) of the biosynthesis of LTB4 ex vivo ([1]; 10 mg/kg): 68%

Ki [4]: 62 nM
Compound: N[C@@H](CS)CSCc1ccccc1 [Example 23, (S)-2-amino-3-benzylthio-1-propanethiol hydrochloride]
